According to article PMC11477289, “Low-Basicity 5-HT6 Receptor Ligands from the Group of Cyclic Arylguanidine Derivatives and Their Antiproliferative Activity Evaluation” (International Journal of Molecular Sciences, 2024):
Read-outs that look alike come from different tables or passages of the source.

Experiments:
[1] = test system: 1321N1 astrocytoma cell line; assay: Antiproliferative activity (MTS), 1321N1; details: Homo sapiens, 1321-N1, 72 h, read-out: IC50 Values 1321N1
U87MG glioblastoma cells = assay: Antiproliferative activity (MTS), U87MG; details: Homo sapiens, U-87 MG, 72 h, read-out: IC50 Values U87MG
human 5-HT6 = biological target: T1, human 5-HT6 (Homo sapiens, UniProt P50406); assay: [3H]-LSD radioligand binding assay, 5-HT6R; details: HEK293 expressing human 5-HT6R
T1 construct: expressed in transfected cells
T1 sequence (P50406 whole entry): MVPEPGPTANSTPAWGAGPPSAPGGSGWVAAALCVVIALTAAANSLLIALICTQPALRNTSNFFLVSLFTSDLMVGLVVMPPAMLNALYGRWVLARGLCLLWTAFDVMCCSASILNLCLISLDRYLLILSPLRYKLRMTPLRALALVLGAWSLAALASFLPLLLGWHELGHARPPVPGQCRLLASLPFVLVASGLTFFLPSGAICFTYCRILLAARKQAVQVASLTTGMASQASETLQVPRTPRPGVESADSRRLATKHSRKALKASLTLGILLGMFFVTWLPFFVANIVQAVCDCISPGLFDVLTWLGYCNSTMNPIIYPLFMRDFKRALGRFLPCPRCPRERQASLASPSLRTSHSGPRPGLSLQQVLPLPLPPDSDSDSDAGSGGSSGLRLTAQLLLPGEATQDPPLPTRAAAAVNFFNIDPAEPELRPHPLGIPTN
Description: Next, the ligands’ affinity for the 5-HT6 receptors was evaluated in the [^3H]-LSD radioligand binding assay. Experiments were performed in a stable HEK293 cell line expressing the human 5-HT6R.
The pellets were stored at −80 °C.

[2] = Affinity to phospholipids, IAM column (CHI IAM); format: physicochemical; details: IAM.PC.DD2 column, pH 7.4
Description: We began with an assay for lipophilicity, affinity for phospholipids (for 40 compounds), and drug binding to human serum albumin (HSA) (for 20 compounds), using chromatographic protocols developed by Valko [46] and implemented in our laboratory [47]. […] These methods allowed the determination of chromatographic hydrophobicity indices (CHIs), binding to HSA (%HSA), and phospholipids (CHIIAM) using a single-gradient elution experiment and comparison to reference substances.

[3] = Chromatographic hydrophobicity index on C18 column (lipophilicity); format: physicochemical
[4] = biological target: human serum albumin (HSA) (Homo sapiens, UniProt P02768); assay: Binding to HSA, Chiralpak HSA column
Sequence of human serum albumin (HSA) (P02768 25-609): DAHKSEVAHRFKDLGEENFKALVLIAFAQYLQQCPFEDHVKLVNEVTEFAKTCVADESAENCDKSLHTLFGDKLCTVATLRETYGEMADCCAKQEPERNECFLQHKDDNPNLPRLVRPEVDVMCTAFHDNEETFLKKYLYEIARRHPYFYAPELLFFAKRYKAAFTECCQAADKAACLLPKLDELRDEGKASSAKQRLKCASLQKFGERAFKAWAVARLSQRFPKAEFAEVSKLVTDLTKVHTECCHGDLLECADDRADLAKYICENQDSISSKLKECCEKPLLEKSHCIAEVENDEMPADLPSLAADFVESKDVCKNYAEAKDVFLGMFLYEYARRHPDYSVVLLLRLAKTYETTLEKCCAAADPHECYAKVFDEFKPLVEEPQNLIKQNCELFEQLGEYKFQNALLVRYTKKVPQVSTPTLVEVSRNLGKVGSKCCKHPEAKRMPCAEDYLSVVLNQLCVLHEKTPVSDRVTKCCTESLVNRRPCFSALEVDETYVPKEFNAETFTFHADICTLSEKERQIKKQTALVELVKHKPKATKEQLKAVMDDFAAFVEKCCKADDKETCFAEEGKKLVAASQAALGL
Text: We began with an assay for lipophilicity, affinity for phospholipids (for 40 compounds), and drug binding to human serum albumin (HSA) (for 20 compounds), using chromatographic protocols developed by Valko [46] and implemented in our laboratory. Compounds with the highest affinity for 5-HT6R and those showing the most promising ADMET parameters, including the possibility of BBB penetration, DDI, and lipophilicity, determined in silico in SwissADME [45], were selected for testing. These methods allowed the determination of chromatographic hydrophobicity indices (CHIs), binding to HSA (%HSA), and phospholipids (CHIIAM) using a single-gradient elution experiment and comparison to reference substances.
The use of columns modified with plasma proteins, such as HSA, also allows for the estimation of binding to HSA, which is the most dominant plasma protein (PP). Binding to PP affects drug pharmacokinetics, such as distribution, half-life, and clearance.
The mobile phase flow rate was 1.5 mL/min, and the column was maintained at 30 °C. • Chiralpak® HSA (50 mm × 4 mm; 5 µm with safety guard column; Daicel Chiral Technologies, West Chester, PA, USA), mobile phase A: 50 mM ammonium acetate, mobile phase B: HPLC-grade isopropanol (VWR International, Leuven, Belgium). For the first 15 min, the linear gradient from 0 to 20% isopropanol was applied and then held at 20% isopropanol for 12 min. In the last 5 min of the sequence, the mobile phase mixture received a pure ammonium acetate solution. The column temperature was held at 30 °C, whereas the flow rate was 0.9 mL/min.
The reference substances for the calibration of HSA, C18, and IAM columns were purchased, respectively: acetanilide, butyrophenone, diclofenac, and octanonophenone (Alfa Aesar, Haverhill, MA, USA); acetophenone, benzimidazole, colchicine, indole, indometacin, paracetamol, and theophylline (Sigma-Aldrich, Steinheim, Germany); nicardipine and nizatidine (Cayman Chemical, Ann Arbor, MI, USA); carbamazepine, heptanophenone, hexanophenone, propiophenone, and valerophenone (Acros Organic, Pittsburg, PA, USA). Before chromatographic experiments, solutes were dissolved in dimethyl sulfoxide (Avantor Performance Materials Poland S.A., Gliwice, Poland) to obtain a 200 µg/mL concentration. The detection was performed in the UV region at the wavelength from 190 nm to 300 nm. The injected volume was 5 μL, and each compound was analyzed in triplicate.

SMILES	melting point	IC50 [1]	IC50 (U87MG glioblastoma cells)	Ki (human 5-HT6; read-out: 5-HT6 Ki)	CHI IAM [2]	CHI C18 pH 2.6 [3]	CHI C18 pH 7.4 [3]	CHI C18 pH 10.5 [3]	%HSA [4]	logKHSA ([4]; Chiralpak HSA column)	%HSA ([4]; Chiralpak HSA column)	Ki (human 5-HT6; 5-HT6 Ki)
CC1NC(NS(=O)(=O)c2cccc3ccccc23)=Nc2ccccc21 (stereo not shown) [PR 67, N -(4-methyl-3,4-dihydroquinazolin-2-yl)naphthalene-1-sulfonamide]	169 to 174 °C	> 25000 nM	> 25000 nM	236 ± 58 nM								
O=S(=O)(NC1=Nc2cccc(Cl)c2CN1)c1cccc2ccccc12 [PR 46, N -(5-chloro-3,4-dihydroquinazolin-2-yl)naphthalene-1-sulfonamide]		> 25000 nM	> 25000 nM	160 ± 36 nM								
Cc1ccc2c(c1)N=C(NS(=O)(=O)c1cccc3ccccc13)NC2 [PR 62, N -(7-methyl-3,4-dihydroquinazolin-2-yl)naphthalene-1-sulfonamide]	166 to 175 °C			653 ± 151 nM	41.6	93.2	93.0	93.7				
O=S(=O)(NC1=Nc2ccccc2CN1)c1ccc(Cl)c(Cl)c1 [PR 21, N -(3,4-dihydroquinazolin-2-yl)-3,4-dichlorobenzene-1-sulfonamide]	192 to 193 °C			1020 ± 256 nM	42.0	94.2	92.3	95.2				
CN(C)CCC=C1c2ccccc2CCc2ccccc21 [Amitriptyline, reference compound]					47.0	65.9	112.0	116.3	88.9%	0.87		
COc1ccc2c(c1)CNC(NS(=O)(=O)c1cccc3ccccc13)=N2 [PR 59, N -(6-methoxy-3,4-dihydroquinazolin-2-yl)naphthalene-1-sulfonamide]	263 to 266 °C			1960 ± 452 nM	38.2	84.9	85.0	88.4				
CC1NC(NS(=O)(=O)c2ccc3ccccc3c2)=Nc2cc(Cl)ccc21 (stereo not shown) [PR 37, N -(7-chloro-4-methyl-3,4-dihydroquinazolin-2-yl)naphthalene-2-sulfonamide]	167 to 171 °C			2220 ± 534 nM	46.1	101.0	100.1	102.6				
CN1CCN2c3ncccc3Cc3ccccc3C2C1 (stereo not shown) [Mirtazapine, reference compound]					39.3	46.7	101.2	79.0		0.51	76.9%	
O=S(=O)(NC1=Nc2ccccc2CN1)c1ccc(F)cc1 [PR 14, N-(3,4-dihydroquinazolin-2-yl)-4-fluorobenzene-1-sulfonamide]	215 to 216 °C			2440 ± 610 nM	31.3	75.4	75.0	75.7				
CN1CCN2c3ccccc3Cc3ccccc3C2C1 (stereo not shown) [Mianserin, reference compound]					44.2	59.4	108.6	98.7		0.95	90.9%	
COc1cccc(S(=O)(=O)NC2=Nc3ccccc3CN2)c1 [PR 24, N -(3,4-dihydroquinazolin-2-yl)-3-methoxybenzene-1-sulfonamide]	108 to 114 °C			906 ± 227 nM	31.4	74.1	74.5	75.5				
O=S(=O)(NC1=Nc2cc(Cl)ccc2CN1)c1cccc2ccccc12 [PR 48, N -(7-chloro-3,4-dihydroquinazolin-2-yl)naphthalene-1-sulfonamide]	214 to 219 °C			668 ± 156 nM	44.6	97.6	97.1	95.9				
O=S(=O)(NC1=Nc2ccccc2CN1)c1cc(Cl)cc(Cl)c1 [PR 23, 3,5-dichloro-N-(3,4-dihydroquinazolin-2-yl)benzene-1-sulfonamide]	208 to 211 °C			609 ± 152 nM	42.6	95.2	94.6	97.7				
O=S(=O)(NC1=Nc2cccc(Cl)c2CN1)c1ccc2ccccc2c1 [PR 31, N -(5-chloro-3,4-dihydroquinazolin-2-yl)naphthalene-2-sulfonamide]	202 to 204 °C			2170 ± 538 nM	46.0	99.7	97.4	100.6				
O=S(=O)(NC1=Nc2ccccc2CN1)c1ccccc1Cl [PR 18, 2-chloro-N-(3,4-dihydroquinazolin-2-yl)benzene-1-sulfonamide]	217 to 222 °C			1800 ± 451 nM	33.5	76.4	76.3	86.6				
O=S(=O)(NC1=Nc2cc(F)ccc2CN1)c1cccc2ccccc12 [PR 56, N -(7-fluoro-3,4-dihydroquinazolin-2-yl)naphthalene-1-sulfonamide]	222 to 226 °C			876 ± 201 nM	40.5	91.0	89.0	95.4				
CC1NC(NS(=O)(=O)c2cccc3ccccc23)=Nc2cc(Cl)ccc21 (stereo not shown) [PR 70, N -(7-chloro-4-methyl-3,4-dihydroquinazolin-2-yl)naphthalene-1-sulfonamide]	214 to 219 °C			985 ± 245 nM	45.8	100.2	99.7	101.0				
Nc1nc2ccccc2n1S(=O)(=O)c1csc2ccccc12 [PR 8, 1-(1-benzothiophene-3-sulfonyl)-1H-1,3-benzodiazol-2-amine]	192 to 195 °C				40.3	89.8	90.3	91.0				133 ± 33 nM
O=S(=O)(NC1=Nc2cc(Cl)ccc2CN1)c1ccc2ccccc2c1 [PR 33, N -(7-chloro-3,4-dihydroquinazolin-2-yl)naphthalene-2-sulfonamide]	220 to 222 °C			1960 ± 434 nM	44.9	98.3	96.4	99.9				
COc1cccc2c1C(=O)c1c(O)c3c(c(O)c1C2=O)C[C@@](O)(C(=O)CO)C[C@@H]3O[C@H]1C[C@H](N)[C@H](O)[C@H](C)O1 [Doxorubicin, reference compound]		1100 nM										
O=S(=O)(NC1=Nc2ccc(Cl)c(Cl)c2CN1)c1cccc2ccccc12 [PR 50, N -(5,6-dichloro-3,4-dihydroquinazolin-2-yl)naphthalene-1-sulfonamide]	233 to 240 °C			451 ± 102 nM	49.0	106.2	103.9	108.6				
COc1ccc(C(CN(C)C)C2(O)CCCCC2)cc1 (stereo not shown) [Venlafaxine, reference compound]					29.9	53.5	82.2	92.9		-0.55		
